Patent publication US20110217265A1, “Screening for Inhibitors of HCV Amphipathic Helix (AH) Function” (priority 2008, published 2011)

How the values were obtained:
[1] = test system: 2a HCV RNA replicon; experiment: 2a HCV RNA replicon assay (FL-J6/JFH-5'C19Rluc2AUbi, luciferase); assay type: cell-based, Hepatitis C Virus genotype 2a; settings: Hepatitis C virus, read-out: 2a (%) Percent of virus activity remaining in the presence of the compound
Text: Plasmids. Bart79I, a high-efficiency subgenomic replicon of HCV (28), harbors the neomycin resistance gene (neo) and the HCV nonstructural proteins. The Bart-Luciferase plasmid, Bart79I-luc, was cloned from the Bart791 parent (29) and the pGL3-Basic parent (Promega). In brief, a NotI site was introduced after the 15th amino acid of Core in Bart791 using PCR mutagenesis. The plasmid pcDNA3.1-NS4B, which encodes the Con1 NS4B sequence and was used to study the protein stability of the wild type and mutant NS4Bs, was described previously. To introduce the M2 mutation into the 4BAH2 of plasmids encoding HCV replicons or NS4B, the nucleotide sequence GCG that encodes for alanine at NS4B amino acid position 51 was changed to GAG (encoding for glutamate) and the nucleotide sequence TGG that encodes for tryptophan at amino acid position 55 was changed to GAT (encoding for aspartate) through the use of Quick-ChangeTMXL site-directed mutagenesis kit (Stratagene, La Jolla, Calif.) as described by the manufacturer and confirmed by sequencing. FL-J6/JFH-5′C19Rluc2AUbi, which is a monocistronic, full-length HCV genome that expresses Renilla luciferase (Rluc) and was derived from the previously described infectious genotype 2a HCV genome J6/JFH1.
(§1) Antiviral Assays of Compounds. Subconfluent Huh7.5 cells were trypsinized and collected by centrifugation at 700 g for 5 min. The cells were then washed three times in ice-cold RNasefree PBS buffer (BioWhittaker) and resuspended at 1.5×10^7 cells·ml^−1 in PBS buffer. Wild-type FL-J6/JFH-5′C19Rluc2AUbi and Bart79I-luc RNAs for electroporation were generated by in vitro transcription of XbaI (FL-J6/JFH-5′C19Rluc2AUbi) and ScaI (Bart791-luc)-linearized DNA templates using the T7 MEGAscript kit (Ambion), followed by phenol-chloroform purification and DEPC water suspension, 5 μg of RNA were mixed with 400 μl of washed Huh7.5 cells in a 2-mm-gap cuvette (BTX) and immediately pulsed (0.82 kV (FL-J6/JFH-5′C19Rluc2AUbi) and 0.68 kV (Bart79I-luc), five […] pulses) with a BTX-830 electroporator. After 10 min recovery at 25° C., pulsed cells were diluted into 20 ml of pre-warmed growth medium. Cells from several electroporations were pooled to a common stock and seeded in 96-well plates (17,000-20,000 cells per well). After 24 hr, compounds were added to the cells and media changes were performed daily with fresh compounds. After 72 hr of treatment, cells were incubated for 2 hr at 37° C. in the presence of 10% Alamar Blue reagent (TREK Diagnostic Systems) to assess for cytotoxicity. Plates were then scanned and fluorescence was detected by using a FLEXstation II 384 (Molecular Devices). The signal was normalized relative to untreated samples. Viral RNA replication was determined using Renilla (FL-J6/JFH-5′C19Rluc2AUbi) or firefly (Bart791-luc) luciferase assays, according to the manufacturer's (Promega) directions. The same samples subjected to the viability assay described below were analyzed in this assay. According to the manufacturer protocol, cells were washed with PBS buffer and shaken at room temperature for 15 min in 20 μl of lysis buffer. Reporter assays were performed directly in the wells of the culture plates by injecting 100 μl of the assay substrate into each well. Luminescence was measured over 10 seconds with a 2-second delay using a Berthold LB 96 V luminometer. Signal was normalized relative to untreated samples or samples grown in the presence of the corresponding concentration of DMSO. Experiments were repeated three times, each time with 4 replicates.

[2] = test system: Huh7.5 cells; experiment: Alamar Blue cell viability assay; assay type: cell-based, human
Protocol: as §1, with “Plates were then scanned and fluorescence was detected by using a FLEXstation II 384 (Molecular Devices).” left out

[3] = test system: HCV 1b RNA replicon; experiment: 1b HCV RNA replicon assay, Huh7 cell line with stable luciferase reporter; assay type: cell-based, Hepatitis C Virus genotype 1b; settings: Huh7, stable LUC reporter; for IC50: Hepatitis C virus, Huh-7

Row | Structure (SMILES) | activity at 5 µM [1] [%] | activity at 10 µM [1] [%] | Cell Viability (%), alamar blue ([2]; 5 μM) [%] | Cell Viability (%), alamar blue ([2]; 10 μM) [%] | 1b assay IC50 [3] | IC50 [3] [µM]
1 | Cc1cc(Cl)ncc1NC(=O)c1nc(Cl)c(N(C)CC(C)C)nc1N [ID 293, 3-amino-6-chloro-N-(6-chloro-4-methylpyridin-3-yl)-5-(isobutyl(methyl)amino)pyrazine-2-carboxamide bis(2,2,2-trifluoroacetate)] | 34 | 28 | 71 | 66 | inactive | –
2 | CC(C)CN(C)c1nc(N)c(C(=O)NCc2ccccc2)nc1Cl [ID 292, 3-amino-N-benzyl-6-chloro-5-(isobutyl(methyl)amino)pyrazine-2-carboxamide 2,2,2-trifluoroacetate] | 39 | 25 | 80 | 62 | inactive | –
3 | CC(C)CN(C)c1nc(N)c(C(=O)NCc2cccnc2)nc1Cl.O=C(O)C(F)(F)F [ID 341, 3-amino-6-chloro-5-(isobutyl(methyl)amino)-N-(pyridin-3-ylmethyl)pyrazine-2-carboxamide 2,2,2-trifluoroacetate] | 30 | 15 | 77 | 65 | inactive | –
4 | Cc1ccncc1NC(=O)c1nc(Cl)c(N2CCCCC2)nc1N [ID 415, 3-amino-6-chloro-N-(4-methylpyridin-3-yl)-5-(piperidin-1-yl)pyrazine-2-carboxamide 2,2,2-trifluoroacetate] | 27 | 10 | 71 | 65 | inactive | –
5 | Cc1ccncc1NC(=O)c1nc(Cl)c(N2CCOCC2)nc1N [ID 419, 3-amino-6-chloro-N-(4-methylpyridin-3-yl)-5-morpholinopyrazine-2-carboxamide 2,2,2-trifluoroacetate] | 75 | 51 | 95 | 77 | – | –
6 | Cc1ccncc1NC(=O)c1cnc(N(C)CC(C)C)cn1 [ID 414, 5-(isobutyl(methyl)amino)-N-(4-methylpyridin-3-yl)pyrazine-2-carboxamide 2,2,2-trifluoroacetate] | 60 | 53 | 100 | 90 | – | –
7 | CCN(CC)c1nc(N)c(C(=O)Nc2cnccc2C)nc1Cl [ID 460, 3-amino-6-chloro-5-(diethylamino)-N-(4-methylpyridin-3-yl)pyrazine-2-carboxamide 2,2,2-trifluoroacetate] | 45 | 22 | 85 | 73 | – | –
8 | Cc1ccncc1NC(=O)c1nc(Cl)c(N2CCCC2)nc1N [ID 420, 3-amino-6-chloro-N-(4-methylpyridin-3-yl)-5-(pyrrolidin-1-yl)pyrazine-2-carboxamide 2,2,2-trifluoroacetate] | 52 | 49 | 73 | 72 | – | –
9 | Cc1cc(F)ncc1NC(=O)c1nc(Cl)c(N(C)CC(C)C)nc1N [ID 297, 3-amino-6-chloro-N-(6-fluoro-4-methylpyridin-3-yl)-5-(isobutyl(methyl)amino)pyrazine-2-carboxamide bis(2,2,2-trifluoroacetate)] | 58 | 16 | 94 | 67 | – | –
10 | Cc1ccncc1NC(=O)c1nc(Cl)c(N(C)CC(C)C)nc1N.Cl [ID 235, 3-amino-6-chloro-5-(isobutyl(methyl)amino)-N-(4-methylpyridin-3-yl)pyrazine-2-carboxamide hydrochloride] | 48 | 22 | 84 | 68 | – | –
11 | CC(C)CN(C)c1nc(N)c(C(=O)NCc2ccncc2)nc1Cl.O=C(O)C(F)(F)F [ID 342, 3-amino-6-chloro-5-(isobutyl(methyl)amino)-N-(pyridin-4-ylmethyl)pyrazine-2-carboxamide 2,2,2-trifluoroacetate] | 22 | 12 | 69 | 56 | inactive | –
12 | CC(C)CN(C)c1nc(N)c(C(=O)NC2CCNCC2)nc1Cl.O=C(O)C(F)(F)F [ID 319, 3-amino-6-chloro-5-(isobutyl(methyl)amino)-N-(piperidin-4-yl)pyrazine-2-carboxamide 2,2,2-trifluoroacetate] | 37 | 11 | 87 | 75 | – | 6.9
13 | CC(C)CN(C)c1nc(N)c(C(=O)NC2CCCCC2)nc1Cl.O=C(O)C(F)(F)F [ID 313, 3-amino-6-chloro-N-cyclohexyl-5-(isobutyl(methyl)amino)pyrazine-2-carboxamide 2,2,2-trifluoroacetate] | 33 | 12 | 68 | 48 | – | > 25
14 | COC(=O)c1cccc(NC(=O)c2nc(Cl)c(N(C)CC(C)C)nc2N)c1.O=C(O)C(F)(F)F [ID 343, methyl 3-(3-amino-6-chloro-5-(isobutyl(methyl)amino)pyrazine-2-carboxamido)benzoate 2,2,2-trifluoroacetate] | 65 | 38 | 98 | 93 | – | –
15 | CC(C)CN(C)c1nc(N)c(C(=O)Nc2ccccn2)nc1Cl.Cl [ID 201, 3-amino-6-chloro-5-(isobutyl(methyl)amino)-N-(pyridin-2-yl)pyrazine-2-carboxamide hydrochloride] | 74 | 48 | >100 | 92 | – | –
